Reference: patent publication US9101613B2, “Methods for treating neurological disease” (Neurim Pharmaceuticals (1991) Ltd., priority 2006, dated 2015)

T1: MT-2 receptor (Homo sapiens, UniProt P49286)
T1 construct: expressed in transfected cells; host or cells: CHP-K1 (Chinese hamster ovary) cells (so in the source)
T1 sequence (P49286 1-362): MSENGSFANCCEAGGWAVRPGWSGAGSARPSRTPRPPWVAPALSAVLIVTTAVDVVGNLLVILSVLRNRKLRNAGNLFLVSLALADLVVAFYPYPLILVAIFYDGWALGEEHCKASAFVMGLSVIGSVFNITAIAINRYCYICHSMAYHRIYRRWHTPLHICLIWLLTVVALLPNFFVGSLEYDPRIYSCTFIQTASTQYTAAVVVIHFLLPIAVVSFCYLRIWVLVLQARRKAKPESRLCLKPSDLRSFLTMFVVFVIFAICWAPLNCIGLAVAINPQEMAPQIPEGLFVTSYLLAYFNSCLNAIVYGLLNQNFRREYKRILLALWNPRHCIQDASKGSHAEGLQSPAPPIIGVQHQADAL

B1: BDNF: Brain-derived neurotrophic factor, growth factor used as reference compound (protein, UniProt P23560 19-247, looked up)
Neurotrophic factor BDNF …: APMKEANIRGQGGLAYPGVRTHGTLESVNGPKAGSRGLTSLADTFEHVIEELLDEDQKVRPNEENNKDADLYTSRVMLSSQVPLEPPLLFLLEEYKNYLDAANMSMRVRRHSDPARRGELSVCDSISEWVTAADKKTAVDMSGGTVTVLEKVPVSKGQLKQYFYETKCNPMGYTKEGCRGIDKRHWNSQCRTTQSYVRALTMDSKKRIGWRFIRIDTSCVCTLTIKRGR

What was measured:
mice = test: Rotarod assay, interaction with diazepam;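 also: Success means running more than 120 min on the rod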; type: in vivo; details: Diazepam 1.5 mg/kg p.o. + Vehicle i.p.; 15 rpm
Protocol: The incidences of animals running more than […] on the rotating rod were noted, and significances were calculated by non-parametric x^2 test. 8 mice/group were used.
The rotarod apparatus is divided into five test zones, so that up to five mice may be tested at the same time. The rod has been specially machined to provide a suitable grip for the animal. The diameter of the rod is 3.5 cm. The rotation speed was 15 rpm. When the animal falls off the rotating rod, it presses a button to record automatically the time spent on the rod. On the day before the experiment the mice were trained to run on the rod rotating with 15 rpm. Diazepam was administered orally 60 min before the rotarod assay, test substances were administered intraperitoneally 15 min before testing.

MT-1 receptor = biological target: T2, MT-1 receptor (Homo sapiens, UniProt P48039); test: 125I-melatonin binding in membranes of CHP-K1 cells, MT-1; details: 0.05 nM 125I-melatonin; for IC50 / Ki: 25° C., 3 hours; for IC50: read-out: MT-1 receptor binding IC50; for Ki: read-out: MT-1 receptor binding KI; for inhibition at 10 µM: read-out: MT-1 receptor binding % inhibition by 10 μM
T2 construct: expressed in transfected cells; host or cells: CHP-K1 (Chinese hamster ovary) cells (so in the source)
Protocol: (§1) Aliquots of suspended membranes of human recombinant CHP-K1 (Chinese hamster ovary) cells stably expressing human melatonin-1 or melatonin-2 (MT-1 or MT-2) receptors or of hamster brain (MT-3) were incubated at 25° C. with 0.05 nM ^125I-melatonin in buffer (25 mM HEPES, pH 7.4, 5 mM MgCl2, 1 mM CaCl2, 0.5% BSA) or with 0.1 nM for MT-3 alone or in the presence of 1 nM, 10 nM, 0.1 μM, 1 μM and 10 μM of test substances N-[2-(5-methoxy-indol-3-yl)-ethyl]-commenamide, N-[2-(5-methoxy-indol-3-yl)-ethyl]-comanilamide, N-[2-(5-methoxy-indol-3-yl)-ethyl]-coumalylamide, N-[2-(5-methoxy-indol-3-yl)-ethyl]-2-methoxy-commenamide, N-[2-(5-methoxy-indol-3-yl)-ethyl]-chelidonamide, O-[2-(5-methoxy-indol-3-yl)-ethyl]-comenic ester, N-[2-(5-methoxy-indol-3-yl)-ethyl]-2-Pyrone-6-carboxamide and N-[2-(2-bromo-5-methoxy-indol-3-yl)-ethyl]-coumalylamide for 3 hours for MT-1, 4 hours for MT-2 and 30 min for MT-3. The binding reaction was terminated and the membranes were washed with 4 ml of ice-cold HEPES buffer by vacuum filtration. Membranes were then collected, and the filters containing the bound ^125I-melatonin were assayed for the amount of radioactivity in a […]. Non-specific binding was evaluated using a reaction with 1 μM 6-chloromelatonin (MT-1 and MT-2) or 30 μM melatonin (MT-3).

MT-2 receptor = biological target: T1, MT-2 receptor; test: 125I-melatonin binding in membranes of CHP-K1 cells, MT-2; details: 0.05 nM 125I-melatonin; for IC50 / Ki: 25° C., 4 hours; for IC50: read-out: MT-2 receptor binding IC50; for Ki: read-out: MT-2 receptor binding KI; for inhibition at 10 µM: read-out: MT-2 receptor binding % inhibition by 10 μM
Protocol: as §1

CD1 mice = test: Potentiation of hexobarbital-Na sleep time in mice; type: in vivo
Protocol: CD1 mice were divided randomly into groups of seven mice each. The mice in each group were administered intraperitoneally a dose of one of the following: 100 mg/kg of one of test substances O-[2-(5-methoxy-indol-3-yl)-ethyl]-comenic ester, N-[2-(5-methoxyindol-3-yl)-ethyl]-commenamide, N-[2-(5-methoxy-indol-3-yl)-ethyl]-coumalylamide, N-[2-(5-methoxy-indol-3-yl)-ethyl]-chelidonamide, N-[2-(5-methoxy-indol-3-yl)-ethyl]-comanilamide or N-[2-(5-methoxy-indol-3-yl)-ethyl]-2-methoxy-commenamide in saline (0.1 ml/10 g body weight), or saline alone. Fifteen minutes later the mice received a dose of 50 mg/kg of hexobarbital-Na intravenously. Sleep time was measured in each animal as the time from loss to recovery of the righting reflex.

3T3-L1 adipocytes = test: 2-[3H]-deoxy-d-glucose uptake in FFA-treated 3T3-L1 adipocyte model; type: cell-based
Protocol: Adipocytes were glucose-starved for 1 h in Hepes-salt buffer containing 2% FFA-free BSA. FFA (free fatty acids) were then added to the cells at the indicated concentrations (300 μM) for the indicated times (3 h). 10 min before the end of the FFA treatment, the cells were stimulated with insulin (20 nM)/melatonin (10 nM)/test compounds (10 nM) at 37° C. 2-[^3H]-deoxy-d-glucose at 1 μCi/mL and 0.1 mM unlabeled 2-deoxyglucose in KRP-HEPES buffer was added and cells were incubated for 10 min at room temperature. Non-specific glucose uptake was measured by parallel incubations in the presence of 10 μM cytochalasin B, which blocks transporter-mediated glucose uptake, and was subtracted from total uptake in each assay. Cells were then washed three times with ice-cold phosphate buffered saline (PBS) and solubilized in 1M NaOH for 20 minutes. The sample was then counted using a scintillation counter. 2-[^3H]-deoxy-d-glucose uptake was assayed in triplicates for each condition in at least 3 independent experiments. 2-[^3H]-deoxy-d-glucose uptake (counts per minute-cpm) are presented as mean+SE of triplicates in a representative experiment or results of three independent experiments. ANOVA test was used with significance of P<0.05 (Table 7).

[1] = system: rat primary cortical neurons; test: Neurite outgrowth in rat primary cortical neurons; type: cell-based; details: 5 days of culture
Protocol: The aim of this study was to assess the potential effect of N-[2-(5-methoxy-indol-3-yl)-ethyl]-comanilamide (100 nM) after 5 days of culture on neurite outgrowth in rat primary cortical neurons. The study used three separate cultures (n=6 wells per condition); the mean value of the 3 cultures (+/−sem) was calculated.
Rat cortical neurons were cultured as described by Singer et al., 1999. Briefly pregnant female rats of 15 days gestation are killed by cervical dislocation (Rats Wistar; Janvier) and the fetuses removed from the uterus. The cortex are removed and placed in ice-cold medium of Leibovitz (L15; Invitrogen) containing 1% of Penicillin-Streptomycin (PS; Invitrogen) and 1% of bovine serum albumin (BSA; Sigma). Cortex are dissociated by trypsinisation for 20 min at 37° C. (Trypsin EDTA 1×; Invitrogen) diluted in PBS without calcium and magnesium. The reaction is stopped by the addition of Dulbecco's modified Eagle's medium (DMEM; Invitrogen) containing DNAase I grade II (0.1 mg/ml; Roche Diagnostic) and 10% of fetal calf serum (FCS; Invitrogen). Cells are then mechanically dissociated by 3 passages through a 10 ml pipette. Cells are then centrifuged at 180×g for 10 min at 10° C. The supernatant is discarded and the cells of pellet are re-suspended in a defined culture medium consisting of Neurobasal (Invitrogen) supplemented with B27 (2%; Invitrogen), L-glutamine (0.2 mM; Invitrogen) and 1% of PS solution with 10 ng/ml of Brain-derived neurotrophic factor (BDNF).
For the neurite outgrowth assay, the cells are seed with test compound A (at 100 nM) and reference compound (BDNF at 10 ng/ml used as reference control) on defined medium (Neurobasal supplemented with 2% of B27, 0.2 mM of L-glutamine and 1% of PS).
The cultures were done (a) without BDNF in order to analyse the neurotrophic effect of compounds alone and (b) with low BDNF concentration (0.5 ng/ml) in order to analyse the synergic neurotrophic effect of N-[2-(5-methoxy-indol-3-yl)-ethyl]-comanilamide with the growth factor.
After 5 days of culture in presence of N-[2-(5-methoxy-indol-3-yl)-ethyl]-comanilamide and reference, cells were fixed by a cool solution of ethanol (95%) and acetic acid (5%) for 10 min. After permeabilization with 0.1% of saponin, cells were incubated with monoclonal antibody anti microtubule associated protein 2 (MAP-2; Sigma). This antibody stains specifically cell bodies and neurite of neurons. […] Nuclei of neurons were labeled by a fluorescent marker (Hoechst solution, SIGMA). Per well, 20 pictures were taken using InCell Analyzer™ 1000 (GE Healthcare) with 20× magnification. All images were done in the same conditions. Analysis of the neuritis networks and neuron were assessed using Developer software (GE Healthcare). […]

T2 sequence (P48039 whole entry): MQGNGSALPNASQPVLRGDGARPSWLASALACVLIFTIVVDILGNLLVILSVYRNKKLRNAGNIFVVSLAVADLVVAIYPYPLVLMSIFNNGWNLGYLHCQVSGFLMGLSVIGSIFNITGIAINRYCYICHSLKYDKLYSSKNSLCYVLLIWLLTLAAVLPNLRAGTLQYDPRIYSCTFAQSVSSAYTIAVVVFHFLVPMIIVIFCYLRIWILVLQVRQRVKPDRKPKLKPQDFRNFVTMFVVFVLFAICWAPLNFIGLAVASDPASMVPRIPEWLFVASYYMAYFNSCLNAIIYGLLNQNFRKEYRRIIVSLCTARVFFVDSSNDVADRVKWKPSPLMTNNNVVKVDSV

Row | Molecule | IC50 (MT-1 receptor) [nM] | Ki (MT-1 receptor) [nM] | inhibition at 10 µM (MT-1 receptor) [%] | IC50 (MT-2 receptor) [nM] | Ki (MT-2 receptor) [nM] | inhibition at 10 µM (MT-2 receptor) [%] | other results
1 | CN1C(=O)CN=C(c2ccccc2)c2cc(Cl)ccc21 [Diazepam, reference compound] | – | – | – | – | – | – | Incidence of performance (rotarod) (mice): 6/8
2 | COc1ccc2[nH]c(Br)c(CCNC(=O)c3ccc(=O)oc3)c2c1 [N-[2-(2-bromo-5-methoxy-indol-3-yl)-ethyl]-coumalylamide] | 2400 | 1250 | 76 | 850 | 441 | 89 | –
3 | COc1ccc2[nH]cc(CCNC(=O)c3cccc(=O)o3)c2c1 [N-[2-(5-methoxy-indol-3-yl)-ethyl]-2-Pyrone-6-carboxamide] | 10100 | 5240 | 50 | 5060 | 2630 | 65 | –
4 | COc1ccc2[nH]cc(CCOC(=O)c3cc(=O)c(O)co3)c2c1 [O-[2-(5-methoxy-indole-3-yl)-ethyl]-comenic ester] | – | – | 47 | 1640 | 850 | 78 | effect on hexobarbital-Na narcosis time (CD1 mice; 100 mg/kg i.p.): significantly increased the hexobarbital-Na narcosis time; Changes (%) vs. Vehicle (sleep time) (CD1 mice; 100 mg/kg i.p. 15 min before 50 mg/kg hexobarbital-Na i.v.): +108%; Mean Sleep Time-Treatment (min) ± SE (CD1 mice; 100 mg/kg i.p. 15 min before 50 mg/kg hexobarbital-Na i.v., loss to recovery of righting reflex): 15.15 ± 6.02 min; 2-[3H]-deoxy-d-glucose uptake (cpm) (3T3-L1 adipocytes; Insulin 20 nM + FFA 300 μM (3 h) + substance 10 nM): 1787 cpm
5 | Insulin | – | – | – | – | – | – | 2-[3H]-deoxy-d-glucose uptake (cpm) (3T3-L1 adipocytes; Insulin (20 nM) alone, no FFA): 1839 cpm
6 | B1 | – | – | – | – | – | – | neurite length, % of control ([1]; BDNF 0.5 ng/ml alone): ~125 % of control; neurite length, % of control ([1]; BDNF 10 ng/ml reference): ~153 % of control
